How the values were obtained:
Type in all cases: biochemical
Recombinant human JAK1 = molecular target: T1, Recombinant human JAK1 (Homo sapiens, UniProt P23458); experiment: JAK1 Ulight-JAK1 peptide assay; conditions: Ulight-JAK1(tyr1023) peptide, 7 μM ATP
T1 construct: catalytic domain (amino acids 866-1154; catalog number PV4774); purchased Invitrogen PV4774
Description: Recombinant human JAK1 (catalytic domain, amino acids 866-1154; catalog number PV4774) was purchased from Invitrogen. 1 ng of JAK1 was incubated with 20 nM Ulight-JAK1(tyr1023) peptide (Perkin Elmer catalog number TRF0121) in kinase reaction buffer (25 mM MOPS pH6.8, 0.01% Brij-35, 5 mM MgCl2, 2 mM DTT, 7 μM ATP) with or without 4 μL containing test compound or vehicle (DMSO, 1% final concentration), in a total volume of 20 μL, in a white 384 Opti plate (Perkin Elmer, catalog number 6007290). After 60 min at room temperature, reactions were stopped by adding 20 μL/well of detection mixture (1× detection buffer (Perkin Elmer, catalog number CR97-100C), 0.5 nM Europium-anti-phosphotyrosine (PT66) (Perkin Elmer, catalog number AD0068), 10 mM EDTA). Readout is performed using the Envision with excitation at 320 nm and measuring emission at 615 nm (Perkin Elmer). Kinase activity was calculated by subtracting relative fluorescence units (RFU) obtained in the presence of a positive control inhibitor (10 μM staurosporine) from RFU obtained in the presence of vehicle. The ability of a test compound to inhibit this activity was determined as: Percentage inhibition=((RFU determined for sample with test compound present−RFU determined for sample with positive control inhibitor)divided by(RFU determined in the presence of vehicle−RFU determined for sample with positive control inhibitor))*100.
(§1) Dose dilution series were prepared for the compounds enabling the testing of dose-response effects in the JAK1 assay and the calculation of the IC50 for the compound. Each compound is routinely tested at concentration of 20 μM followed by a ⅕ serial dilution, 10 points in a final concentration of 1% DMSO. When potency of compound series increases, more dilutions are prepared and/or the top concentration are lowered (e.g. 5 μM, 1 μM). The data are expressed as the average IC50 from the assays±standard error of the mean.

Recombinant human JAK2 = molecular target: T2, Recombinant human JAK2 (Homo sapiens, UniProt O60674); experiment: JAK2 Ulight-JAK1 peptide assay; conditions: Ulight-JAK1(tyr1023) peptide, 7.5 μM ATP
T2 construct: catalytic domain (amino acids 808-1132; catalog number PV4210); GST; purchased Invitrogen PV4210
T2 sequence (O60674 808-1132): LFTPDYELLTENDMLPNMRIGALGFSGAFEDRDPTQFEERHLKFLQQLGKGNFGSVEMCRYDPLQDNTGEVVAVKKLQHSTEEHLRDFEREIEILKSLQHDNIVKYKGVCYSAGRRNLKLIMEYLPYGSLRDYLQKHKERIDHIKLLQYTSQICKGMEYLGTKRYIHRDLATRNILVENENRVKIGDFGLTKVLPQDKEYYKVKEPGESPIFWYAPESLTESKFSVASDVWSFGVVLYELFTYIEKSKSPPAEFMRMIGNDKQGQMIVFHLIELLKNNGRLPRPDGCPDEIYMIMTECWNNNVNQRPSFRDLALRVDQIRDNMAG
Description: Recombinant human JAK2 (catalytic domain, amino acids […]; catalog number PV4210) was purchased from Invitrogen. 0.0125 mU of JAK2 was incubated with 25 nM Ulight-JAK1(tyr1023) peptide (Perkin Elmer catalog number TRF0121) in kinase reaction buffer (25 mM HEPES pH7.0, 0.01% Triton X-100, 7.5 mM MgCl2, 2 mM DTT, 7.5 μM ATP) with or without 4 μL containing test compound or vehicle (DMSO, 1% final concentration), in a total volume of 20 μL, in a white 384 Opti plate (Perkin Elmer, catalog number 6007290). After 60 min at room temperature, reactions were stopped by adding 20 μL/well of detection mixture (1× detection buffer (Perkin Elmer, catalog number CR97-100C), 0.5 nM Europium-anti-phosphotyrosine (PT66) (Perkin Elmer, catalog number AD0068), 10 mM EDTA). Readout is performed using the Envision with excitation at 320 nm and measuring emission at 615 nm (Perkin Elmer). Kinase activity was calculated by subtracting relative fluorescence units (RFU) obtained in the presence of a positive control inhibitor (10 μM staurosporine) from RFU obtained in the presence of vehicle. The ability of a test compound to inhibit this activity was determined as: Percentage inhibition=((RFU determined for sample with test compound present−RFU determined for sample with positive control inhibitor)divided by(RFU determined in the presence of vehicle−RFU determined for sample with positive control inhibitor))*100.
as §1, with “each compound” for “the compounds”, “JAK2” for “JAK1”

[1] = molecular target: T3, Recombinant human JAK3 catalytic domain (Homo sapiens, UniProt P52333); experiment: JAK3 inhibition assay; conditions: polyGT substrate, 33P-gamma-ATP filter assay, 1 μM ATP
T3 construct: catalytic domain (amino acids 795-1124; catalog number 08-046); purchased Carna Biosciences 08-046
T3 sequence (P52333 795-1124): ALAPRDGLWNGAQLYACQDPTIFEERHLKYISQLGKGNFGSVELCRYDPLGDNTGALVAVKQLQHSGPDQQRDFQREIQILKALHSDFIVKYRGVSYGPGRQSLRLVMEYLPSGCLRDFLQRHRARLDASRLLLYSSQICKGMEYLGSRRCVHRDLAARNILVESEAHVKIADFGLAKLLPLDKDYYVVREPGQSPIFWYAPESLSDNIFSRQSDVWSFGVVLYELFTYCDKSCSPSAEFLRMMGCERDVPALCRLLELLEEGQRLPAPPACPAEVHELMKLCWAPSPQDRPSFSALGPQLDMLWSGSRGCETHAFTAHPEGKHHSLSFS
Description: Recombinant human JAK3 catalytic domain (amino acids 795-1124; catalog number 08-046) was purchased from Carna Biosciences. 0.5 ng JAK3 protein was incubated with 2.5 μg polyGT substrate (Sigma catalog number P0275) in kinase reaction buffer (25 mM Tris pH 7.5, 0.5 mM EGTA, 10 mM MgCl2, 2.5 mM DTT, 0.5 mM Na3VO4, 5 mM b-glycerolphosphate, 0.01% Triton X-100, 1 μM non-radioactive ATP, 0.25 μCi ^33P-gamma-ATP (Perkin Elmer, catalog number NEG602K001MC) final concentrations) with or without 5 μL containing test compound or vehicle (DMSO, 1% final concentration), in a total volume of 25 μL, in a polypropylene 96-well plate (Greiner, V-bottom). After 45 min at 30° C., reactions were stopped by adding 25 μL/well of 150 mM phosphoric acid. All of the terminated kinase reaction was transferred to prewashed (75 mM phosphoric acid) 96 well filter plates (Perkin Elmer catalog number 6005177) using a cell harvester (Perkin Elmer). Plates were washed 6 times with 300 μL per well of a 75 mM phosphoric acid solution and the bottom of the plates was sealed. 40 μL/well of Microscint-20 was added, the top of the plates was sealed and readout was performed using the Topcount (Perkin Elmer). Kinase activity was calculated by subtracting counts per min (cpm) obtained in the presence of a positive control inhibitor (10 μM staurosporine) from cpm obtained in the presence of vehicle. The ability of a test compound to inhibit this activity was determined as: Percentage inhibition=((cpm determined for sample with test compound present−cpm determined for sample with positive control inhibitor)divided by(cpm determined in the presence of vehicle−cpm determined for sample with positive control inhibitor))*100.
Dose dilution series were prepared for the compounds enabling the testing of dose-response effects in the JAK3 assay and the calculation of the IC50 for each compound. Each compound was routinely tested at concentration of 20 μM followed by a ⅕ serial dilution, 10 points in a final concentration of 1% DMSO. When potency of compound series increased, more dilutions were prepared and/or the top concentration was lowered (e.g. 5 μM, 1 μM).

T1 sequence (P23458 866-1154): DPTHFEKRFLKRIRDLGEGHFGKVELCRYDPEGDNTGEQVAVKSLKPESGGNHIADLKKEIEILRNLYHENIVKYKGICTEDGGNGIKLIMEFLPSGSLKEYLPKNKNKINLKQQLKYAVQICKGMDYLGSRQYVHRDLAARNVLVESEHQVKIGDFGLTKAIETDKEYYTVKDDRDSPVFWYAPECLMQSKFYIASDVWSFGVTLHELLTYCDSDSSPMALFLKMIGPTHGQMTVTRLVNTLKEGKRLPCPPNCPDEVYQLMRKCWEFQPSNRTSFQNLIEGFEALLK

Structure (SMILES) | IC50 (Recombinant human JAK1) [nM] | IC50 (Recombinant human JAK2) [nM] | IC50 [1] [nM]
CC(=O)Nc1cc2c(-c3cnc(CN4CCN(S(C)(=O)=O)CC4)c(F)c3)cccn2n1 [Compound 26, N-(4-(5-fluoro-6-((4-(methylsulfonyl)piperazin-1-yl)methyl)pyridin-3-yl)pyrazolo[1,5-a]pyridin-2-yl)acetamide] | 101 to 500 | 101 to 500 | > 1000
CC(=O)Nc1cc2c(-c3ccc(CN4CCS(=O)(=O)CC4)c(F)c3)cccn2n1 [Compound 27, N-{4-[4-(1,1-Dioxo-thiomorpholin-4-ylmethyl)-3-fluoro-phenyl]-pyrazolo[1,5-a]pyridin-2-yl}-acetamide] | 0.01 to 100 | 0.01 to 100 | 0.01 to 100
CC(=O)Nc1cc2c(-c3ccc(CN4CCN(CC(F)(F)F)CC4)c(F)c3)cccn2n1 [Compound 28, N-(4-(3-fluoro-4-((4-(2,2,2-trifluoroethyl)piperazin-1-yl)methyl)phenyl)pyrazolo[1,5-a]pyridin-2-yl)acetamide] | 0.01 to 100 | 0.01 to 100 | 101 to 500
CC(=O)Nc1cc2c(-c3ccc(CN4CCC(S(C)(=O)=O)CC4)c(F)c3)cccn2n1 [Compound 29, N-(4-(3-fluoro-4((4-(methylsulfonyl)piperidin-1-yl)methyl)phenyl)pyrazolo[1,5-a]pyridin-2-yl)acetamide] | 0.01 to 100 | 0.01 to 100 | 101 to 500
CC(=O)Nc1cc2c(-c3ccc(CC(=O)N4CC(F)(F)C4)cc3)cccn2n1 [Compound 34, N-(4-(4-(2-(3,3-difluoroazetidin-1-yl)-2-oxoethyl)phenyl)pyrazolo[1,5-a]pyridin-2-yl)acetamide] | 0.01 to 100 | 0.01 to 100 | 101 to 500
CC(=O)Nc1cc2c(-c3ccc(CC(=O)N4CCCCC4)cc3)cccn2n1 [Compound 35, N-(4-(4-(2-oxo-2-(piperidin-1-yl)ethyl)phenyl)pyrazolo[1,5-a]pyridin-2-yl)acetamide] | 101 to 500 | 0.01 to 100 | 0.01 to 100
CC(=O)Nc1cc2c(-c3ccc(CC(=O)N4CCOCC4)cc3)cccn2n1 [Compound 36, N-(4-(4-(2-morpholino-2-oxoethyl)phenyl)pyrazolo[1,5-a]pyridin-2-yl)acetamide] | 101 to 500 | 0.01 to 100 | 101 to 500

Continued, values first:

IC50 (Recombinant human JAK1) [nM] | IC50 (Recombinant human JAK2) [nM] | IC50 [1] [nM] | Structure (SMILES)
0.01 to 100 | 101 to 500 | 501 to 1000 | CS(=O)(=O)C1CCN(Cc2ccc(-c3cccn4nc(NC(=O)C5CC5)c(Cl)c34)cc2F)CC1 [Compound 20, N-(3-chloro-4-(3-fluoro-4-((4-(methylsulfonyl)piperidin-1-yl)methyl)phenyl)pyrazolo[1,5-a]pyridin-2-yl)cyclopropanecarboxamide]
0.01 to 100 | 0.01 to 100 | 101 to 500 | CC(=O)Nc1cc2c(-c3ccc(CN4CCN(S(C)(=O)=O)CC4)c(F)c3)cccn2n1 [Compound 21]
0.01 to 100 | 101 to 500 | 101 to 500 | CS(=O)(=O)N1CCN(Cc2ccc(-c3cccn4nc(NC(=O)C5CC5)cc34)cn2)CC1 [Compound 23, N-(4-(6-((4-(methylsulfonyl)piperazin-1-yl)methyl)pyridin-3-yl)pyrazolo[1,5-a]pyridin-2-yl)cyclopropanecarboxamide]
0.01 to 100 | 501 to 1000 | 501 to 1000 | CC(=O)Nc1cc2c(-c3ccc(CN4CCN(S(C)(=O)=O)C[C@H]4C)cc3)cccn2n1 [Compound 24, (R)-N-(4-(4-((2-methyl-4-(methylsulfonyl)piperazin-1-yl)methyl)phenyl)pyrazolo[1,5-a]pyridin-2-yl)acetamide]
0.01 to 100 | 0.01 to 100 | 101 to 500 | CC(=O)Nc1cc2c(-c3ccc(CN4CCN(S(C)(=O)=O)CC4)cc3)cccn2n1 [Compound 25, N-(4-(4-((4-(methylsulfonyl)piperazin-1-yl)methyl)phenyl)pyrazolo[1,5-a]pyridin-2-yl)acetamide]

From patent US8975406B2, “Compound useful for the treatment of degenerative and inflammatory diseases” (Galapagos N.V., priority 2011, dated 2015)
